# How the values were obtained:
# Test in all cases: relative viability (nuclei count vs DMSO), 5 days (fraction); higher = more cells survive
# [1] = system: A-427
# Outline: (§1)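 Relative viability is defined as nuclei in treated wells over nuclei in vehicle wells. Duplicate plates were run and medians reported. Lung cancer cell lines in 1536-well plates were dosed by pin tool one day after seeding, with one drug or with a fixed anchor-drug dose plus five library-drug doses (not always all listed) in √10 steps, and nuclei were counted after 5 days.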
# [2] = system: H3255
# Outline: as §1
# [3] = system: HARA
# Outline: as §1
# [4] = system: HCC-366
# Outline: as §1
# [5] = system: HCC-44
# Outline: as §1
# [6] = system: LCLC-97TM1
# Outline: as §1
# [7] = system: LXF-289
# Outline: as §1
# [8] = system: NCI-H1395
# Outline: as §1
# [9] = system: NCI-H1755
# Outline: as §1
# [10] = system: NCI-H1915
# Outline: as §1
# [11] = system: NCI-H1975
# Outline: as §1
# [12] = system: NCI-H1993
# Outline: as §1
# [13] = system: NCI-H2170
# Outline: as §1
# [14] = system: NCI-H2228
# Outline: as §1
# [15] = system: NCI-H2347
# Outline: as §1
# [16] = system: NCI-H2405
# Outline: as §1
# [17] = system: NCI-H3122
# Outline: as §1
# [18] = system: NCI-H441
# Outline: as §1
# [19] = system: NCI-H520
# Outline: as §1
# [20] = system: NCI-H838
# Outline: as §1
# [21] = system: PC-14
# Outline: as §1
# [22] = system: RERF-LC-KJ
# Outline: as §1
# [23] = system: SK-MES-1
# Outline: as §1
smiles,measurement,setting,value
Oc1nc(-c2ccc(C(F)(F)F)cc2)nc2c1CSCC2 [XAV939] + CC1(C)CCC(c2ccc(Cl)cc2)=C(CN2CCN(c3ccc(C(=O)NS(=O)(=O)c4ccc(N[C@H](CCN5CCOCC5)CSc5ccccc5)c(S(=O)(=O)C(F)(F)F)c4)cc3)CC2)C1 [Navitoclax] (partner 0.5 µM),relative viability,[1]; first compound 0.08 µM,1.03
same,relative viability,[1]; first compound 0.253 µM,0.989
same,relative viability,[1]; first compound 0.8 µM,0.9
same,relative viability,[1]; first compound 2.53 µM,0.809
same,relative viability,[2]; first compound 0.08 µM,0.511
same,relative viability,[2]; first compound 0.253 µM,0.445
same,relative viability,[2]; first compound 0.8 µM,0.403
same,relative viability,[2]; first compound 2.53 µM,0.366
same,relative viability,[3]; first compound 0.08 µM,1.15
same,relative viability,[3]; first compound 0.253 µM,0.609
same,relative viability,[3]; first compound 0.8 µM,1.17
same,relative viability,[3]; first compound 2.53 µM,1.17
same,relative viability,[4]; first compound 0.08 µM,1.12
same,relative viability,[4]; first compound 0.253 µM,1.09
same,relative viability,[4]; first compound 0.8 µM,1.05
same,relative viability,[4]; first compound 2.53 µM,0.942
same,relative viability,[5]; first compound 0.08 µM,1.01
same,relative viability,[5]; first compound 0.253 µM,0.945
same,relative viability,[5]; first compound 0.8 µM,0.948
same,relative viability,[5]; first compound 2.53 µM,0.899
same,relative viability,[6]; first compound 0.08 µM,0.534
same,relative viability,[6]; first compound 0.253 µM,0.399
same,relative viability,[6]; first compound 0.8 µM,0.621
same,relative viability,[6]; first compound 2.53 µM,0.294
same,relative viability,[7]; first compound 0.08 µM,0.92
same,relative viability,[7]; first compound 0.253 µM,0.911
same,relative viability,[7]; first compound 0.8 µM,0.949
same,relative viability,[7]; first compound 2.53 µM,0.972
same,relative viability,[8]; first compound 0.08 µM,1.11
same,relative viability,[8]; first compound 0.253 µM,1.33
same,relative viability,[8]; first compound 0.8 µM,1.2
same,relative viability,[8]; first compound 2.53 µM,1.16
same,relative viability,[9]; first compound 0.08 µM,0.945
same,relative viability,[9]; first compound 0.253 µM,0.796
same,relative viability,[9]; first compound 0.8 µM,0.907
same,relative viability,[9]; first compound 2.53 µM,0.853
same,relative viability,[10]; first compound 0.08 µM,0.813
same,relative viability,[10]; first compound 0.253 µM,0.793
same,relative viability,[10]; first compound 0.8 µM,0.769
same,relative viability,[10]; first compound 2.53 µM,0.792
same,relative viability,[11]; first compound 0.08 µM,1.08
same,relative viability,[11]; first compound 0.253 µM,0.784
same,relative viability,[11]; first compound 0.8 µM,1.06
same,relative viability,[11]; first compound 2.53 µM,0.768
same,relative viability,[12]; first compound 0.8 µM,0.698
same,relative viability,[12]; first compound 2.53 µM,0.787
same,relative viability,[13]; first compound 0.08 µM,0.427
same,relative viability,[13]; first compound 0.253 µM,0.441
same,relative viability,[13]; first compound 0.8 µM,0.501
same,relative viability,[13]; first compound 2.53 µM,0.422
same,relative viability,[14]; first compound 0.08 µM,1.13
same,relative viability,[14]; first compound 0.253 µM,0.838
same,relative viability,[14]; first compound 0.8 µM,0.94
same,relative viability,[14]; first compound 2.53 µM,1.1
same,relative viability,[15]; first compound 0.08 µM,0.788
same,relative viability,[15]; first compound 0.253 µM,0.886
same,relative viability,[15]; first compound 0.8 µM,0.75
same,relative viability,[15]; first compound 2.53 µM,0.698
same,relative viability,[16]; first compound 0.08 µM,0.945
same,relative viability,[16]; first compound 0.253 µM,0.762
same,relative viability,[16]; first compound 0.8 µM,0.886
same,relative viability,[16]; first compound 2.53 µM,0.555
same,relative viability,[17]; first compound 0.08 µM,1.03
same,relative viability,[17]; first compound 0.253 µM,1.04
same,relative viability,[17]; first compound 0.8 µM,1.04
same,relative viability,[17]; first compound 2.53 µM,0.886
same,relative viability,[18]; first compound 0.08 µM,0.571
same,relative viability,[18]; first compound 0.253 µM,0.683
same,relative viability,[18]; first compound 0.8 µM,0.487
same,relative viability,[18]; first compound 2.53 µM,0.973
same,relative viability,[19]; first compound 0.08 µM,1.21
same,relative viability,[19]; first compound 0.253 µM,0.988
same,relative viability,[19]; first compound 0.8 µM,0.861
same,relative viability,[19]; first compound 2.53 µM,0.885
same,relative viability,[20]; first compound 0.08 µM,1.21
same,relative viability,[20]; first compound 0.253 µM,0.994
same,relative viability,[20]; first compound 0.8 µM,1.07
same,relative viability,[20]; first compound 2.53 µM,0.868
same,relative viability,[21]; first compound 0.08 µM,1.04
same,relative viability,[21]; first compound 0.253 µM,0.906
same,relative viability,[21]; first compound 0.8 µM,1.03
same,relative viability,[21]; first compound 2.53 µM,0.956
same,relative viability,[22]; first compound 0.08 µM,0.905
same,relative viability,[22]; first compound 0.253 µM,0.999
same,relative viability,[22]; first compound 0.8 µM,0.804
same,relative viability,[22]; first compound 2.53 µM,0.452
same,relative viability,[23]; first compound 0.08 µM,1.21
same,relative viability,[23]; first compound 0.253 µM,1.12
same,relative viability,[23]; first compound 0.8 µM,1.12
same,relative viability,[23]; first compound 2.53 µM,1.14
Oc1nc(-c2ccc(C(F)(F)F)cc2)nc2c1CSCC2 [XAV939] + CC(=O)Nc1cccc(-n2c(=O)n(C3CC3)c(=O)c3c(Nc4ccc(I)cc4F)n(C)c(=O)c(C)c32)c1 [Trametinib] (partner 0.02 µM),relative viability,[1]; first compound 0.08 µM,0.818
same,relative viability,[1]; first compound 0.253 µM,0.737
same,relative viability,[1]; first compound 0.8 µM,0.781
same,relative viability,[1]; first compound 2.53 µM,0.658
same,relative viability,[2]; first compound 0.08 µM,0.674
same,relative viability,[2]; first compound 0.253 µM,0.528
same,relative viability,[2]; first compound 0.8 µM,0.62
same,relative viability,[2]; first compound 2.53 µM,0.425
same,relative viability,[3]; first compound 0.08 µM,0.925
same,relative viability,[3]; first compound 0.253 µM,0.531
same,relative viability,[3]; first compound 0.8 µM,0.892
same,relative viability,[3]; first compound 2.53 µM,0.506
same,relative viability,[4]; first compound 0.08 µM,0.307
same,relative viability,[4]; first compound 0.253 µM,0.28
same,relative viability,[4]; first compound 0.8 µM,0.327
same,relative viability,[4]; first compound 2.53 µM,0.259
same,relative viability,[5]; first compound 0.08 µM,1.04
same,relative viability,[5]; first compound 0.253 µM,0.843
same,relative viability,[5]; first compound 0.8 µM,0.927
same,relative viability,[5]; first compound 2.53 µM,0.924
same,relative viability,[6]; first compound 0.08 µM,0.213
same,relative viability,[6]; first compound 0.253 µM,0.199
same,relative viability,[6]; first compound 2.53 µM,0.161
same,relative viability,[7]; first compound 0.08 µM,0.665
same,relative viability,[7]; first compound 0.253 µM,0.632
same,relative viability,[7]; first compound 0.8 µM,0.687
same,relative viability,[7]; first compound 2.53 µM,0.729
same,relative viability,[8]; first compound 0.08 µM,1.02
same,relative viability,[8]; first compound 0.253 µM,0.974
same,relative viability,[8]; first compound 0.8 µM,1.11
same,relative viability,[8]; first compound 2.53 µM,0.944
same,relative viability,[9]; first compound 0.08 µM,0.719
same,relative viability,[9]; first compound 0.253 µM,0.64
same,relative viability,[9]; first compound 0.8 µM,0.661
same,relative viability,[9]; first compound 2.53 µM,0.692
same,relative viability,[10]; first compound 0.08 µM,0.359
same,relative viability,[10]; first compound 0.253 µM,0.296
same,relative viability,[10]; first compound 0.8 µM,0.276
same,relative viability,[10]; first compound 2.53 µM,0.294
same,relative viability,[11]; first compound 0.08 µM,0.359
same,relative viability,[11]; first compound 0.253 µM,0.296
same,relative viability,[11]; first compound 0.8 µM,0.35
same,relative viability,[11]; first compound 2.53 µM,0.275
same,relative viability,[12]; first compound 0.08 µM,0.541
same,relative viability,[12]; first compound 0.253 µM,0.488
same,relative viability,[12]; first compound 0.8 µM,0.411
same,relative viability,[12]; first compound 2.53 µM,0.449
same,relative viability,[13]; first compound 0.08 µM,0.882
same,relative viability,[13]; first compound 0.253 µM,0.833
same,relative viability,[13]; first compound 0.8 µM,0.822
same,relative viability,[13]; first compound 2.53 µM,0.72
same,relative viability,[14]; first compound 0.08 µM,0.429
same,relative viability,[14]; first compound 0.253 µM,0.488
same,relative viability,[14]; first compound 0.8 µM,0.541
same,relative viability,[14]; first compound 2.53 µM,0.571
same,relative viability,[15]; first compound 0.08 µM,0.302
same,relative viability,[15]; first compound 0.253 µM,0.278
same,relative viability,[15]; first compound 0.8 µM,0.308
same,relative viability,[15]; first compound 2.53 µM,0.236
same,relative viability,[16]; first compound 0.08 µM,0.685
same,relative viability,[16]; first compound 0.253 µM,0.591
same,relative viability,[16]; first compound 0.8 µM,0.607
same,relative viability,[16]; first compound 2.53 µM,0.412
same,relative viability,[17]; first compound 0.08 µM,0.257
same,relative viability,[17]; first compound 0.253 µM,0.211
same,relative viability,[17]; first compound 0.8 µM,0.237
same,relative viability,[17]; first compound 2.53 µM,0.196
same,relative viability,[18]; first compound 0.08 µM,0.513
same,relative viability,[18]; first compound 0.253 µM,0.366
same,relative viability,[18]; first compound 0.8 µM,0.414
same,relative viability,[18]; first compound 2.53 µM,0.484
same,relative viability,[19]; first compound 0.08 µM,0.687
same,relative viability,[19]; first compound 0.8 µM,0.501
same,relative viability,[19]; first compound 2.53 µM,0.427
same,relative viability,[20]; first compound 0.08 µM,0.595
same,relative viability,[20]; first compound 0.253 µM,0.441
same,relative viability,[20]; first compound 0.8 µM,0.392
same,relative viability,[20]; first compound 2.53 µM,0.39
same,relative viability,[21]; first compound 0.08 µM,0.833
same,relative viability,[21]; first compound 0.253 µM,0.707
same,relative viability,[21]; first compound 0.8 µM,0.671
same,relative viability,[21]; first compound 2.53 µM,0.597
same,relative viability,[22]; first compound 0.08 µM,0.859
same,relative viability,[22]; first compound 0.253 µM,0.733
same,relative viability,[22]; first compound 0.8 µM,0.768
same,relative viability,[22]; first compound 2.53 µM,0.603
same,relative viability,[23]; first compound 0.08 µM,0.554
same,relative viability,[23]; first compound 0.253 µM,0.5
same,relative viability,[23]; first compound 0.8 µM,0.489
same,relative viability,[23]; first compound 2.53 µM,0.459

# Reference: the supplement of paper PMC10307832
